“Also recorded” adds a separate entry of the source. Where two headings read alike, the source gives them in different places.
How the values were obtained:
[1] = Fleet et al., compound No. 57 vs. No. 16; cited from earlier work
[2] = test system: HEF cells (strain MRC-5); experiment: HEF cell growth / monolayer appearance in HSV type II plaque reduction assay; format: cell-based, human; conditions: all concentrations (0.56-4.5 mM)
Procedure: (§1) For plaque reduction assays, 24-well culture trays were seeded with HEF cells. Confluent monolayers were infected with virus to give initially about 100 plaque-forming-units (p.f.u.) per well. After a one hour absorption period the inocula were replaced by l.5ml of a maintenance medium incorporating 0.5% low gelling temperature agarose, supplemented with various concentrations of test compound. For tests with CMV, infected monolayers were fixed with 5% formalin in phosphate buffered saline (PBS) at 6-8 days post-infection and stained with 0.3% methylene blue after removal of the overlay; whereas, tests with HSV were conducted in the same manner but with the monolayer fixing at 2 days post infection. The mean plaque number was calculated from a multiple series of counts (e.g., duplicate, triplicate or quadruplicate), converted to a percentage of untreated controls and values plotted against the log10 drug concentration. The 50% effective dose (ED50) was determined from best line fits for the curves.

[3] = test system: HSV type I; experiment: preliminary tests with a HSV type I strain which did not form multinucleated giant cells; format: cell-based; conditions: strain not forming giant cells
From the text: The formation of multinucleated giant cells (syncytia), which result from the fusion of T4 cells with each other, is one of the most striking properties of HIV [Walker et al., Proc. Natl. Acad. Sci. USA 84, 8120-8124 (1987); Gruters et al., Nature 330, 74-77 (1987)]. Some, but not all, HSV strains also produce these multinucleated giant cells in vitro cell culture.

[4] = test system: Herpes Simplex Type II (Viral Strain HG52); experiment: Herpes Simplex Type II Plaque Reduction Assay; format: cell-based; conditions: for Plaque Count: replicate counts
From the text: (§2) For testing the N-Bu-DNJ against HSV, the HSV Type II strain HG52 described by Timbury, J. Gen. Virol. 13, 373-376 (1971), and Davis et al., Analyst 110, 605-609 (1985), is useful. For testing against CMV, the prototype CMV ADl69 strain described, for example, by Tyms et al., J. Gen. Virol. 68, 1563-1573 (1987), and in U.S. Pat. No. 4,743,560, is useful. Another useful CMV strain is the Towne strain described by Glazer et al., Ann. Inter. Med. 91, 676-683 (1979).
(§3) Human embryo fibroblast cells (HEF) were grown in Eagles minimal essential medium supplemented with 7% fetal calf serum (FCS), 9 mM sodium bicarbonate and 7 mM HEPES buffer. In maintenance medium the supplements were adjusted to 2% FCS, 13 mM sodium bicarbonate and 14 mM HEPES. CMV, strain Towne, and HSV type II, strain […], were used in the following tests. CMV virus stocks were prepared and stored by technique as previously described by Tyms & Williamson, Nature 297, 690-691 […]. Herpes virus stocks were prepared and stored by technique as previously described by Davis et al., Analyst 110, 605-609 (1985). The HEF were human embryonic lung fibroblasts, strain MRC-5, as described by Tyms and Williamson, Nature 297, 690-691 (1982).
as §1
The mean plaque numbers determined on HEF cells exposed to varying amount of N-Bu-DNJ, N-Me-DNJ, N-He-DNJ, 2-deoxy-D-glucose and castanospermine were converted to percentage values (plaque count in presence of drug divided by mean value of untreated controls×100), and plotted as a function of drug concentration [drug (mM)].
The 50% effective dose (ED50)--that amount of drug needed to reduce plaque count by 50%--was calculated to give the following values: […]

[5] = test system: Cytomegalovirus (Viral Strain Towne); experiment: Yield Reduction Assay against infections with CMV (Towne strain); format: cell-based; conditions: for Plaque Count (infectivity titre): 10^1 dil.; for activity at 500 µM / activity at 2000 µM: read-out: % Virus Control
Procedure: Antiviral activities of N-Bu-DNJ and comparative test compounds against infections with CMV (Towne strain) were also measured by the yield reduction assay as follows:
HEF cells (MRC-5) were infected at high multiplicity of infection (about one p.f.u. per cell) and incubated with various concentrations of the test compounds for 5 and 6 days post infection. The level of infectious virus shed into the extracellular fluid was determined at 5 and 6 days by plaque assays as described above, using serial dilution of extracellular fluid to bring readings on scale.
In Table VI, to calculate plaque-forming units (PFU) of the maintenance medium overlayering HEF cells, the plaque count at the most sensitive dilution (from Table V) was multiplied by dilution value and then by 5 (0.2 ml sample volumes used in test) to give PFU (per ml maintenance medium). (e.g. calculation of drug control: 31×10^3 ×5=1.6×10^5 PFU).

[6] = test system: Cytomegalovirus (Viral Strain Towne); experiment: Cytomegalovirus Plaque Reduction Assay; format: cell-based
From the text: as §2, §3, §1
In a similar manner, the Effective Dosage Values (ED50) were determined from the curves of FIG. 1. A least squares fit of the data of FIG. 1 to an equation of the form: y=mx+b gave the following values: […]
From these values, a 50% effective dose (ED50) was calculated to give the following values: […]

- EC50 ([4]; HEF, HSV type II, amount of drug needed to reduce plaque count by 50%, read-out: 50% effective dose (ED50)): 1200 µM
- EC50 ([6]; Human betaherpesvirus 5, HEF, CMV, calculated from least squares fit of FIG. 1, read-out: 50% effective dose (ED50)): 570 µM
SMILES: CCCCN1C[C@H](O)[C@@H](O)[C@H](O)[C@H]1CO [N-Bu-DNJ, Nbutyl deoxynojirimycin]
- cytotoxicity relative to castanospermine (in words) [1]: substantially less cytotoxic
- HEF cell growth (in words) [2]: grew normally
- antiviral effect on HSV type I strain (in words) [3]: only minor effect
- antiviral activity against HSV type II (in words) [4]: substantially reduce herpesvirus type II infection of HEF cells; also recorded: strong antiviral activity
- activity at 220 µM ([4]; HEF, Table I, 0.22 mM, read-out: % Virus Control): 85%
- activity at 450 µM ([4]; HEF, Table I, 0.45 mM, read-out: % Virus Control): 60%
- activity at 900 µM ([4]; HEF, Table I, 0.9 mM, read-out: % Virus Control): 37%
- activity at 1800 µM ([4]; HEF, Table I, 1.8 mM, read-out: % Virus Control): 40%
- activity at 3600 µM ([4]; HEF, Table I, 3.6 mM, read-out: % Virus Control): 7.7%
- activity at 560 µM ([4]; HEF, Table III, 0.56 mM, read-out: % Virus Control): 56.9%
- activity at 1120 µM ([4]; HEF, Table III, 1.12 mM, read-out: % Virus Control): 51%
- activity at 2250 µM ([4]; HEF, Table III, 2.25 mM, read-out: % Virus Control): 27.5%
- activity at 4500 µM ([4]; HEF, Table III, 4.5 mM, read-out: % Virus Control): 17.6%
- Plaque Count Avg ([4]; Table I, 0.22 mM): 66
- Plaque Count ([4]; Table I, 0.22 mM): 80,52
- Plaque Count Avg ([4]; Table I, 0.45 mM): 47
- Plaque Count ([4]; Table I, 0.45 mM): 42,53
- Plaque Count Avg ([4]; Table I, 0.9 mM): 29
- Plaque Count ([4]; Table I, 0.9 mM): 36,22
- Plaque Count Avg ([4]; Table I, 1.8 mM): 31
- Plaque Count ([4]; Table I, 1.8 mM): 41,20
- Plaque Count Avg ([4]; Table I, 3.6 mM): 6
- Plaque Count ([4]; Table I, 3.6 mM): 5,7
- Plaque Count Avg ([4]; Table III, 0.56 mM): 29
- Plaque Count Avg ([4]; Table III, 1.12 mM): 26
- Plaque Count Avg ([4]; Table III, 2.25 mM): 14
- Plaque Count Avg ([4]; Table III, 4.5 mM): 9
- PFU ([5]; 0.5 mM, 5 days HEF growth): 8.5 × 10^5 PFU (per ml maintenance medium
- Plaque Count (infectivity titre) ([5]; 0.5 mM, 5 days growth): ~ 200
- PFU ([5]; 0.5 mM, 6 days HEF growth): 1.3 × 10^4 PFU (per ml maintenance medium
- Plaque Count (infectivity titre) ([5]; 0.5 mM, 6 days growth): ~ 200
- PFU ([5]; 2.0 mM, 5 days HEF growth): 1.4 × 10^3 PFU (per ml maintenance medium
- PFU ([5]; 2.0 mM, 6 days HEF growth): 5.5 × 10^2 PFU (per ml maintenance medium
- activity at 500 µM ([5]; Human betaherpesvirus 5, MRC5, 120 h, 0.5 mM, 5 days HEF growth): 5.3%
- activity at 2000 µM ([5]; Human betaherpesvirus 5, MRC5, 120 h, 2.0 mM, 5 days HEF growth): 0.88%
- activity at 500 µM ([5]; Human betaherpesvirus 5, MRC5, 144 h, 0.5 mM, 6 days HEF growth): 3.5%
- activity at 2000 µM ([5]; Human betaherpesvirus 5, MRC5, 144 h, 2.0 mM, 6 days HEF growth): 0.15%
- activity at 220 µM ([6]; Human betaherpesvirus 5, HEF, Table IV, 0.22 mM, read-out: % Virus control): 87%
- activity at 450 µM ([6]; Human betaherpesvirus 5, HEF, Table IV, 0.45 mM, read-out: % Virus control): 52%
- activity at 900 µM ([6]; Human betaherpesvirus 5, HEF, Table IV, 0.90 mM, read-out: % Virus control): 32%
- activity at 1800 µM ([6]; Human betaherpesvirus 5, HEF, Table IV, 1.8 mM, read-out: % Virus control): 17%
- Plaque Count Avg ([6]; Table IV, 0.22 mM): 153
- Plaque Count ([6]; Table IV, 0.22 mM, replicate counts): 159,156,144,153
- Plaque Count Avg ([6]; Table IV, 0.45 mM): 92
- Plaque Count Avg ([6]; Table IV, 0.90 mM): 56
- Plaque Count Avg ([6]; Table IV, 1.8 mM): 30
- reduction of CMV infection of HEF cells (in words) ([6]; compared with castanospermine): reduces CMV infection of HEF cells at about the same dosage as does castanospermine

— US4957926A, “Method of treating herpesviruses” (priority 1988, dated 1990)
